Measurements published in BigSolDB 2.1.

C=CC(=O)NCO
Settings | solubility (mole fraction)
in acetonitrile, 279.15 K | 0.0244
in acetonitrile, 282.05 K | 0.0276
in acetonitrile, 288.15 K | 0.0341
in acetonitrile, 292.75 K | 0.041
in acetonitrile, 298.15 K | 0.0499
in acetonitrile, 304.05 K | 0.0614
in acetonitrile, 308.55 K | 0.0716
in chloroform, 279.65 K | 0.0011
in chloroform, 282.35 K | 0.0013
in chloroform, 286.05 K | 0.0015
in chloroform, 289.85 K | 0.0019
in chloroform, 294.45 K | 0.0023
in chloroform, 299.15 K | 0.0029
in chloroform, 303.25 K | 0.0035
in dichloromethane, 277.55 K | 0.0018
in dichloromethane, 280.35 K | 0.0019
in dichloromethane, 282.95 K | 0.0021
in dichloromethane, 285.55 K | 0.0023
in dichloromethane, 288.15 K | 0.0025
in dichloromethane, 291.75 K | 0.0028
in ethyl acetate, 278.55 K | 0.0109
in ethyl acetate, 281.85 K | 0.0127
in ethyl acetate, 285.05 K | 0.0146
in ethyl acetate, 289.15 K | 0.0176
in ethyl acetate, 296.95 K | 0.0248
in ethyl acetate, 300.95 K | 0.0294
in ethyl acetate, 305.05 K | 0.0351
in furan, 278.55 K | 0.0445
in furan, 282.05 K | 0.0515
in furan, 284.45 K | 0.0574
in furan, 288.25 K | 0.0683
in furan, 291.45 K | 0.0789
in furan, 294.85 K | 0.0919
in furan, 297.25 K | 0.102
in n-butyl acetate, 278.05 K | 0.0037
in n-butyl acetate, 281.15 K | 0.0045
in n-butyl acetate, 284.35 K | 0.0055
in n-butyl acetate, 288.95 K | 0.0073
in n-butyl acetate, 292.05 K | 0.0087
in n-butyl acetate, 295.35 K | 0.0105
in n-butyl acetate, 301.45 K | 0.0148
in pyridine, 278.55 K | 0.232
in pyridine, 281.35 K | 0.245
in pyridine, 286.95 K | 0.272
in pyridine, 292.25 K | 0.303
in pyridine, 297.95 K | 0.339
in pyridine, 302.15 K | 0.367
in pyridine, 306.25 K | 0.401
in toluene, 279.75 K | 0.0004
in toluene, 284.35 K | 0.0006
in toluene, 287.95 K | 0.0008
in toluene, 291.55 K | 0.0009
in toluene, 294.95 K | 0.0011
in toluene, 298.55 K | 0.0014
in toluene, 305.35 K | 0.002
